The record followed here is US8088801B2, “Aryloazol-2-yl cyanoethylamino compounds, method of making and method of using thereof” (Merial Limited, priority 2007, dated 2012).

Bounds are passed on as bounds.

A word on the inhibition: it is the share of the control response that was lost under treatment.

One experiment concerns Haemonchus contortus. In words: Method A: screening against Haemonchus contortus, L1 larvae in microtitre plate. Particulars: 96 h, test concentration 0.0025 ppm, 4 days assessment, read-out: motility inhibition. An excerpt:
Method A: Screening Method to Test Activity of Compounds Against Haemonchus contortus.
Consider `CC(C#N)(Cn1nc2c(Br)cc(Cl)c(Br)c2n1)NC(=O)c1ccc(OC(F)(F)F)cc1` (stereo not drawn) [Compound 1.083, N-[2-(5-Chloro-4,7-dibromo-2H-benzotriazol-2-yl)-1-cyano-1-methylethyl]-4-trifluoromethoxybenzamide], for which the inhibition at 0.0025 ppm was not below 90%.
With `CC(C#N)(Cn1nc2c(Cl)c(Br)c(Cl)c(Br)c2n1)NC(=O)c1ccc(OC(F)(F)F)cc1` (stereo not drawn) [Compound 1.088, N-[1-Cyano-2-(4,6-dibromo-5,7-dichloro-2H-benzotriazol-2-yl)-1-methylethyl]-4-trifluoromethoxybenzamide], the inhibition at 0.0025 ppm was not below 90%.
On to `COc1c2ccc(Br)cc2nn1CC(C)(C#N)NC(=O)c1ccc(OC(F)(F)F)cc1` (stereo not drawn) [Compound 2.023, N-[2-(6-Bromo-3-methoxy-2H-indazol-2-yl)-1-cyano-1-methylethyl]-4-trifluoromethoxybenzamide], for which the inhibition at 0.0025 ppm was not below 90%.
In the case of `COc1c2ccc(C(F)(F)F)cc2nn1CC(C)(C#N)NC(=O)c1ccc(OC(F)(F)F)cc1` (stereo not drawn) [Compound 2.025, N-[1-Cyano-2-(3-methoxy-6-trifluoromethyl-2H-indazol-2-yl)-1-methylethyl]-4-trifluoromethoxybenzamide], the inhibition at 0.0025 ppm is not below 90%.
Consider `CC(C#N)(Cn1nc2cc(Cl)ccc2c1Br)NC(=O)c1ccc(OC(F)(F)F)cc1` (stereo not drawn) [Compound 2.042, N-[2-(3-Bromo-6-chloro-2H-indazol-2-yl)-1-cyano-1-methylethyl]-4-trifluoromethoxybenzamide], for which the inhibition at 0.0025 ppm is not below 90%.
With `CC(C#N)(Cn1nc2cc(Cl)ccc2c1Cl)NC(=O)c1ccc(OC(F)(F)F)cc1` (stereo not drawn) [Compound 2.044, N-[1-Cyano-2-(3,6-dichloro-2H-indazol-2-yl)-1-methylethyl]-4-trifluoromethoxybenzamide], the inhibition at 0.0025 ppm was not below 90%.

The same experiment, now with this note: 96 h, test concentration 0.01 ppm, 4 days assessment, read-out: motility inhibition.
With `Cc1cc(Cl)c(C)c2nn(CC(C)(C#N)NC(=O)c3ccc(OC(F)(F)F)cc3)nc12` (stereo not drawn) [Compound 1.092, N-[2-(5-Chloro-4,7-dimethyl-2H-benzotriazol-2-yl)-1-cyano-1-methylethyl]-4-trifluoromethoxybenzamide], the inhibition at 0.01 ppm was not below 90%.
In the case of `CCOc1c2cc(Cl)ccc2nn1CC(C)(C#N)NC(=O)c1ccc(OC(F)(F)F)cc1` (stereo not drawn) [Compound 2.014, N-[2-(5-Chloro-3-ethoxy-2H-indazol-2-yl)-1-cyano-1-methylethyl]-4-trifluoromethoxybenzamide], the inhibition at 0.01 ppm is not below 90%.
As for `CCOc1c2ccc(Cl)cc2nn1CC(C)(C#N)NC(=O)c1ccc(OC(F)(F)F)cc1` (stereo not drawn) [Compound 2.027, N-[2-(6-Chloro-3-ethoxy-2H-indazol-2-yl)-1-cyano-1-methylethyl]-4-trifluoromethoxybenzamide], the inhibition at 0.01 ppm is not below 90%.
In the case of `CC(C#N)(Cn1nc2c(Cl)c(Cl)ccc2c1Cl)NC(=O)c1ccc(OC(F)(F)F)cc1` (stereo not drawn) [Compound 2.039, N-[1-Cyano-1-methyl-2-(3,6,7-trichloro-2H-indazol-2-yl)ethyl]-4-trifluoromethoxybenzamide], the inhibition at 0.01 ppm is not below 90%.

Still in this experiment, the particulars now being: 96 h, test concentration 0.04 ppm, 4 days assessment, read-out: motility inhibition.
Regarding `CC(C#N)(Cn1nc2ccc(Cl)cc2n1)NC(=O)c1ccc(Oc2ccccc2)cc1` (stereo not drawn) [Compound 1.032, N-[2-(5-Chloro-2H-benzotriazol-2-yl)-1-cyano-1-methylethyl]-4-phenoxybenzamide], the inhibition at 0.04 ppm is not below 90%.
In the case of `CC(C#N)(Cn1nc2ccc(Cl)c(Br)c2n1)NC(=O)c1ccc(OC(F)(F)F)cc1` (stereo not drawn) [Compound 1.057, N-[2-(4-Bromo-5-chloro-2H-benzotriazol-2-yl)-1-cyano-1-methylethyl]-4-trifluoromethoxybenzamide], the inhibition at 0.04 ppm is not below 90%.
Turning to `CC(C#N)(Cn1nc2cc(Cl)cc(Br)c2n1)NC(=O)c1ccc(OC(F)(F)F)cc1` (stereo not drawn) [Compound 1.060, N-[2-(4-Bromo-6-chloro-2H-benzotriazol-2-yl)-1-cyano-1-methylethyl]-4-trifluoromethoxybenzamide], the inhibition at 0.04 ppm was not below 90%.
On to `CC(C#N)(Cn1nc2cc(Cl)cc(C#N)c2n1)NC(=O)c1ccc(OC(F)(F)F)cc1` (stereo not drawn) [Compound 1.067, N-[2-(6-Chloro-4-cyano-2H-benzotriazol-2-yl)-1-cyano-1-methylethyl]-4-trifluoromethoxybenzamide], for which the inhibition at 0.04 ppm is not below 90%.
For the compound `C=Cc1cc(Cl)cc2nn(CC(C)(C#N)NC(=O)c3ccc(OC(F)(F)F)cc3)nc12` (stereo not drawn) [Compound 1.075, N-[2-(6-Chloro-4-vinyl-2H-benzotriazol-2-yl)-1-cyano-1-methylethyl]-4-trifluoromethoxybenzamide], the inhibition at 0.04 ppm is not below 90%.
On to `CC(C#N)(Cn1nc2cc(Cl)cc(C(F)CF)c2n1)NC(=O)c1ccc(OC(F)(F)F)cc1` (stereo not drawn) [Compound 1.078, N-{2-[6-Chloro-4-(1,2-difluoroethyl)-2H-benzotriazol-2-yl]-1-cyano-1-methyl-ethyl}-4-trifluoromethoxybenzamide], for which the inhibition at 0.04 ppm is not below 90%.
In the case of `Cc1cc(Cl)cc2cn(CC(C)(C#N)NC(=O)c3ccc(OC(F)(F)F)cc3)nc12` (stereo not drawn) [Compound 2.006, N-[2-(5-Chloro-7-methyl-2H-indazol-2-yl)-1-cyano-1-methylethyl]-4-trifluoromethoxybenzamide], the inhibition at 0.04 ppm was not below 90%.
As to `COc1c2c(Cl)cc(Cl)cc2nn1CC(C)(C#N)NC(=O)c1ccc(OC(F)(F)F)cc1` (stereo not drawn) [Compound 2.021, N-[1-Cyano-2-(4,6-dichloro-3-methoxy-2H-indazol-2-yl)-1-methylethyl]-4-trifluoromethoxybenzamide], the inhibition at 0.04 ppm is not below 90%.

Still in this experiment, the particulars now being: 96 h, test concentration 0.15 ppm, 4 days assessment, read-out: motility inhibition.
For the compound `CC(C#N)(Cn1nc2ccc(Cl)cc2n1)NC(=O)c1ccc(C(F)(F)F)cc1` (stereo not drawn) [Compound 1.002, N-[2-(5-Chloro-2H-benzotriazol-2-yl)-1-cyano-1-methylethyl]-4-trifluoromethylbenzamide], the inhibition at 0.15 ppm is not below 90%.
For `Cc1ccc2nn(CC(C)(C#N)NC(=O)c3ccc(OC(F)(F)F)cc3)nc2c1` (stereo not drawn) [Compound 1.006, N-[1-Cyano-1-methyl-2-(5-methyl-2H-benzotriazol-2-yl)ethyl]-4-trifluoromethoxybenzamide], the inhibition at 0.15 ppm is not below 90%.
In the case of `CC(C#N)(Cn1nc2cc(Cl)c(Cl)cc2n1)NC(=O)c1ccc(OC(F)(F)F)cc1` (stereo not drawn) [Compound 1.010, N-[1-Cyano-2-(5,6-dichloro-2H-benzotriazol-2-yl)-1-methylethyl]-4-trifluoromethoxybenzamide], the inhibition at 0.15 ppm was not below 90%.
As to `CC(C#N)(Cn1nc2cc(C(F)(F)F)cc(C(F)(F)F)c2n1)NC(=O)c1ccc(OC(F)(F)F)cc1` (stereo not drawn) [Compound 1.018, N-[2-(4,6-Bis(trifluoromethyl)-2H-benzotriazol-2-yl)-1-cyano-1-methylethyl]-4-trifluoromethoxybenzamide], the inhibition at 0.15 ppm is not below 90%.
As for `CC(C#N)(Cn1nc2cc(Cl)cc(Cl)c2n1)NC(=O)c1ccc(S(=O)(=O)C(F)(F)F)cc1` (stereo not drawn) [Compound 1.025, N-[1-Cyano-2-(4,6-dichloro-2H-benzotriazol-2-yl)-1-methylethyl]-4-trifluoromethylsulfonylbenzamide], the inhibition at 0.15 ppm was not below 90%.
Regarding `CC(C#N)(Cn1nc2ccc(Cl)cc2n1)NC(=O)c1ccc(S(=O)(=O)C(F)(F)F)cc1` (stereo not drawn) [Compound 1.031, N-[2-(5-Chloro-2H-benzotriazol-2-yl)-1-cyano-1-methylethyl]-4-trifluoromethylsulfonylbenzamide], the inhibition at 0.15 ppm was not below 90%.
`CC(C#N)(Cn1nc2cccc(Cl)c2n1)NC(=O)c1ccc(Oc2ccccc2)cc1` (stereo not drawn) [Compound 1.045, N-[2-(4-Chloro-2H-benzotriazol-2-yl)-1-cyano-1-methylethyl]-4-phenoxybenzamide]: the inhibition at 0.15 ppm is not below 90%.
`CC(C#N)(Cn1nc2cc(C(F)(F)F)cc(C#N)c2n1)NC(=O)c1ccc(OC(F)(F)F)cc1` (stereo not drawn) [Compound 1.054, N-[1-Cyano-2-(4-cyano-6-trifluoromethyl-2H-benzotriazol-2-yl)-1-methylethyl]-4-trifluoromethoxybenzamide]: the inhibition at 0.15 ppm is not below 90%.
In the case of `CSCC(C#N)(Cn1nc2ccc(Cl)cc2n1)NC(=O)c1ccc(OC(F)(F)F)cc1` (stereo not drawn) [Compound 1.061, N-[2-(5-Chloro-2H-benzotriazol-2-yl)-1-cyano-1-(methylthiomethyl)ethyl]-4-trifluoromethoxybenzamide], the inhibition at 0.15 ppm is not below 90%.
With `CC(C#N)(Cn1nc2cc(Cl)cc(C=O)c2n1)NC(=O)c1ccc(OC(F)(F)F)cc1` (stereo not drawn) [Compound 1.079, N-[2-(6-Chloro-4-formyl-2H-benzotriazol-2-yl)-1-cyano-1-methylethyl]-4-trifluoromethoxybenzamide], the inhibition at 0.15 ppm is not below 90%.
As for `CC(C#N)(Cn1nc2cc(Cl)cc(CO)c2n1)NC(=O)c1ccc(OC(F)(F)F)cc1` (stereo not drawn) [Compound 1.081, N-[2-(6-Chloro-4-hydroxymethyl-2H-benzotriazol-2-yl)-1-cyano-1-methylethyl]-4-trifluoromethoxybenzamide], the inhibition at 0.15 ppm is not below 90%.
As for `COC(=O)c1cc(Cl)cc2nn(CC(C)(C#N)NC(=O)c3ccc(OC(F)(F)F)cc3)nc12` (stereo not drawn) [Compound 1.084, Methyl 6-chloro-2-[2-cyano-2-({[4-(trifluoromethoxy)phenyl]carbonyl}-amino)propyl]-2H-benzotriazole-4-carboxylate], the inhibition at 0.15 ppm is not below 90%.
Still for that read-out and setting: the figure for `CC(C#N)(Cn1cc2cc(Cl)cc(Cl)c2n1)NC(=O)c1ccc(Oc2ccccc2)cc1` (stereo not drawn) [Compound 2.004, N-[1-Cyano-2-(5,7-dichloro-2H-indazol-2-yl)-1-methylethyl]-4-phenoxybenzamide] is not below 90%.
Turning to `Cc1c2cc(Cl)cc(Cl)c2nn1CC(C)(C#N)NC(=O)c1ccc(OC(F)(F)F)cc1` (stereo not drawn) [Compound 2.010, N-[1-Cyano-2-(5,7-dichloro-3-methyl-2H-indazol-2-yl)-1-methylethyl]-4-trifluoromethoxybenzamide], the inhibition at 0.15 ppm was not below 90%.
As for `COc1c2ccc([N+](=O)[O-])cc2nn1CC(C)(C#N)NC(=O)c1ccc(OC(F)(F)F)cc1` (stereo not drawn) [Compound 2.033, N-[1-Cyano-2-(3-methoxy-6-nitro-2H-indazol-2-yl)-1-methylethyl]-4-trifluoromethoxybenzamide], the inhibition at 0.15 ppm is not below 90%.
